# Test results taken from article PMC7732027 (Bioorganic & medicinal chemistry letters, 2019).
# Tested on: influenza A virus PR8-GLuc (H1N1) strain
# Format: cell-based
row,SMILES,decrease of potency versus Pimodivir
1,Cl.O=C(O)[C@H]1C2CCC(C3CC32)[C@@H]1Nc1nc(-c2c[nH]c3ncc(F)cc23)ncc1F (some centres unmarked) [13b],12 times
2,Cl.O=C(O)C12CC3CC(CC(Nc4nc(-c5c[nH]c6ncc(F)cc56)ncc4F)(C3)C1)C2 [13d],230 times
